Results published in patent US7645776B2, “Heteroaryl substituted piperidine derivatives which are L-CPT1 inhibitors” (Hoffmann-La Roche Inc., priority 2005, dated 2010).
pIC50: −log10 of the molar value.

Each compound was assayed against T1, liver carnitine palmitoyl transferase 1 (L-CPT1) (Homo sapiens, UniProt P50416) (assay: L-CPT1 inhibition, spectrophotometric DTNB (Ellman's reagent) CPT activity assay).
T1 construct: made in house; host or cells: Pichia pastoris strain X-33 (crude cell-free extract)
T1 sequence (P50416 1-773): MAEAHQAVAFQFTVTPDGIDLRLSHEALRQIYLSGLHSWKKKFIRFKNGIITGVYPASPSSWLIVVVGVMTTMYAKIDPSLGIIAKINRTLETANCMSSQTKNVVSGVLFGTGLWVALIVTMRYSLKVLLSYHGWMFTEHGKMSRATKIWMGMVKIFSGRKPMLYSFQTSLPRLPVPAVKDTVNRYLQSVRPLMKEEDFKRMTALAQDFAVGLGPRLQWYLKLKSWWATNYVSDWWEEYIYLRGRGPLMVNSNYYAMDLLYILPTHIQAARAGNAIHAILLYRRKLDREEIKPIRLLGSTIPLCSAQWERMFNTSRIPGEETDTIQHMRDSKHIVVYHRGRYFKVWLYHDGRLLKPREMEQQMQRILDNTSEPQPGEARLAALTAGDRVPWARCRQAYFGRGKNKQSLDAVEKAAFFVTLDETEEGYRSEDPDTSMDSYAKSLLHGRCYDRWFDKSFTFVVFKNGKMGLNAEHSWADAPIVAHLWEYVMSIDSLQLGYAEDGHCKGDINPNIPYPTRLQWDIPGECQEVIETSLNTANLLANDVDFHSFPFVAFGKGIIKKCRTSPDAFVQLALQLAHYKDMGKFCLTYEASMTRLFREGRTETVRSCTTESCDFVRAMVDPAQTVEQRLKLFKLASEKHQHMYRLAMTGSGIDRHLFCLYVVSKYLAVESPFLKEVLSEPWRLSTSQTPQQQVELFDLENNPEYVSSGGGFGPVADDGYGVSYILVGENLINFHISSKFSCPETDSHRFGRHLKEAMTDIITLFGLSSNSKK
Format: biochemical
Protocol: The following tests were carried out in order to determine the activity of the compounds of the present invention. Background information on the performed assays can be found in: Jackson et al., 1999, Biochem. J. 341, 483-489 and Jackson et al., 2000, J. Biol. Chem. 275, 19560-19566.
Human liver and muscle CPT1 cDNAs and rat CPT2 cDNA were subcloned in pGAPZB or pGAPZA, respectively. These plasmids were used to transform P. pastoris strain X-33 via electroporation after the preparation of electrocompetent cells. High copy number clones were selected where necessary using 0.5 or 1 mg/ml Zeocin. Cultures for activity measurements were induced for 16 h in YPD medium (1% yeast extract, 2% peptone, 2% glucose). Crude cell extracts were prepared by disrupting the cells with glass beads or French Press, depending on fermenter sizes. After centrifugation, the cell-free extracts were resuspended in cell breaking buffer (50 mM Tris, pH7.4, 100 mM KCl, 1 mM EDTA) in the presence of a protease inhibitor cocktail, before aliquoting and freezing at −20° C.
CPT activity was measured using a spectrophotometric assay using 5,5′-dithio-bis-(2-nitrobenzoic acid) (DTNB) also called Ellman's reagent. The HS-CoA released on the formation of acylcarnitine from carnitine (500 μM) and palmitoyl-CoA (80 μM) reduced DTNB (300 μM) forming 5-mercapto-(2-nitrobenzoic acid) which absorbed at 410 nm with a molar coefficient extinction of 13600 M^−1.cm^−1. The assay buffer contained 120 mM KCl, 25 mM Tris, pH 7.4, 1 mM EDTA. This assay was used for the identification of selective inhibitors of the liver CPT1 isoform versus the muscle CPT1 and CPT2 isoforms.
`O=C(COc1ccccc1)N1CCCC[C@@H]1c1nc(-c2ccc(F)cc2)no1` [Example 10, (R)-1-{2-[3-(4-Fluoro-phenyl)-[1,2,4]oxadiazol-5-yl]-piperidin-1-yl}-2-phenoxy-ethanone] showed a pIC50 of 6.59. `COc1ccc(-c2n[nH]c([C@H]3CN(C)CCN3C(=O)COc3ccccc3)n2)cc1` [Example 172, (R)-1-{2-[5-(4-Methoxy-phenyl)-2H-[1,2,4]triazol-3-yl]-4-methyl-piperazin-1-yl}-2-phenoxy-ethanone] gave a pIC50 of 6.62. `COc1ccc(-c2noc([C@H]3CCCCN3C(=O)COc3ccccc3)n2)cc1` [Example 1, (R)-1-{2-[3-(4-Methoxy-phenyl)-[1,2,4]oxadiazol-5-yl]-piperidin-1-yl}-2-phenoxy-ethanone] gave a pIC50 of 7.18.
